Values quoted from earlier work, collected in patent US6365196B1, “Controlled release solid dosage forms of lithium carbonate” (SmithKline Beecham Corporation, priority 1997, dated 2002).

- solubility in water: 6 mg per ml
Compound: O=C(O)/C=C/C(=O)O [fumaric acid]
